Data set [1] has as its system A431 cells. Briefly: Localization in early and late endosomes after siRNA treatment. It counts as cell-based. The settings on record: 20 cells; for % ASO EE/Total ASO: early endosomes (EEA1); for % ASO LE/Total ASO: late endosomes (LAMP1). How it is done:
EGFR levels in A431 cells were reduced using two siRNAs targeting EGFR, Assay ID 42833 and Assay ID 644 (ThermoFisher). A siRNA targeting luciferase was used for a control. Treatment of cells with the EGFR siRNA reduced EGFR protein levels more than 80%. Following siRNA treatment, cells were treated with additional compounds to test for antisense compound localization, activity, or uptake, as described below.
Following siRNA treatment, cells were treated with compound no. 446654 for two hours. EEA1 was labeled as in Example 2 and LAMP1 was labeled with an antibody. EEA1 is a marker for early endosomes and LAMP1 is a marker for late endosomes. Co-localization of compound no. 446654 with EEA1 and with LAMP1 was observed. The number of 446654 loci co-localized with EEA1 or LAMP1 was counted in 20 cells, and compared to the total number of 446654 loci. The difference observed with control siRNA treatment vs EGFR siRNA treatment shown in Table 22 is significant, as determined by the student T-test (p<0.05), whereas the difference shown in Table 23 was not determined to be significant by the student T-test.

In data set [2] the test system is A431 cells. Briefly: Immunofluorescent microscopy co-localization. In kind it is cell-based. How it is done: Immunofluorescent staining was used to visualize clathrin, EGFR, and PS-ASOs in A431 cells. Compound no. 446654 has the sequence and structure Cy3-^mCesTesGes^mCesTesAdsGds^mCdsTds^mCdsTdsGdsGdsAdsTesTesTesGesAe (SEQ ID NO: 10). Cells were incubated with FITC labeled epidermal growth factor (EGF) or unlabeled EGF and compound no. 446654 for 30 minutes, then fixed with 4% paraformaldehyde for 20 minutes at room temperature and permeabilized with 0.05% saponin (Sigma) in PBS for 5 minutes. Cells were treated with blocking buffer (1 mg/mL BSA in PBS) for 30 minutes and then incubated with primary antibodies at room temperature for 2-4 hours or at 4° C. overnight. Primary antibodies used were ab30 (Abcam) for EGFR, ab21679 (Abcam) for clathrin, and antibody 610456 (BD Bioscience) for early endosome antigen 1 (EEA1). After three washes with PBS, cells were fluorescently labeled with secondary antibodies at room temperature for 1-2 hours. Secondary antibodies used were anti-mouse conjugated to AF488 (ab150077, Abcam) or AF647 (ab150079, Abcam), and anti-rabbit conjugated to AF488 (ab150113, Abcam) or AF647 (ab150115, Abcam). Nuclei were labeled with Hoechst 33342. Cells were then visualized with a confocal microscope (Olympus FV-1000), and single slices and Z-stack images were obtained. Co-localization between PS-ASOs and different organelles was analyzed using FV10-ASW 3.0 viewer software.

Setting [3] is: FITC-EGF, 30 minutes, EGFR and clathrin antibodies.
Setting [4] is: FITC-EGF, EGFR and EEA1 antibodies.
Where [5] appears, read: unlabeled EGF, 30 minutes, EGFR and clathrin antibodies.
[6] abbreviates: unlabeled EGF, EGFR and EEA1 antibodies.

Turning to “Cy3-^mCesTesGes^mCesTesAdsGds^mCdsTds^mCdsTdsGdsGdsAdsTesTesTesGesAe (antisense CTGCTAGCCTCTGGATTTGA; listed as DNA, chemistry not fully specified) [compound 446654, Cy3-labeled PS-ASO]”, in the data set on A431 cells [1] (Control luciferase siRNA), the “% ASO EE/Total ASO” value is given as 15% and the “% ASO LE/Total ASO” value is 79%. In the data set on A431 cells [1] (EGFR siRNA-1), the “% ASO EE/Total ASO” value worked out at 26% and the “% ASO LE/Total ASO” value was 66%. Besides, in the data set with A431 cells [2] (setting [3]), the “co-localization with EGF” value was “observed within the cytoplasm and at the cell surface”; the co-localization with clathrin result is on record as “observed at the cell surface”. In the data set on A431 cells [2] (setting [4]), the “co-localization with EEA1” value was “observed within the cytoplasm”; the “co-localization with EGF” value is “observed both at the cell surface and within the cytoplasm”. In the data set with A431 cells [2] (setting [5]), the “co-localization with EGFR” value is “observed both at the cell surface and within the cytoplasm”; the co-localization with clathrin result is “observed at the cell surface”. In the data set on A431 cells [2] (setting [6]), the “co-localization with EEA1” value was “observed in the cytoplasm and within the nucleus”; the “co-localization with EGFR” value was “observed at the cell surface, in the cytoplasm, and within the nucleus”.

Values taken from patent US20200407717A1, “METHODS OF MODULATING ANTISENSE ACTIVITY” (Ionis Pharmaceuticals, Inc., priority 2018, published 2020).
